Laboratory results as given in ChEMBL document CHEMBL4828737, “Glutathione-responsive prodrug conjugates for image-guided combination in cancer therapy” (Eur J Med Chem, 2021).
Activity calls are given as the source filed them. No cut-off for these calls is given here.

How the values were obtained:
HeLa [1] = assay: Induction of apoptosis in human HeLa cells assessed as early apoptotic cells at 30 uM incubated for 24 hrs by Annexin V/PI double staining base flow cytometry analysis (reference value: 2.59 %); type: functional
HeLa [2] = assay: Induction of apoptosis in human HeLa cells assessed as late apoptotic cells at 30 uM incubated for 24 hrs by Annexin V/PI double staining base flow cytometry analysis (reference value: 12.5 %); type: functional
HeLa [3] = assay: Induction of apoptosis in human HeLa cells assessed as necrotic cells at 30 uM incubated for 24 hrs by Annexin V/PI double staining base flow cytometry analysis (reference value: 2.65 %); type: functional
HeLa [4] = assay: Induction of apoptosis in human HeLa cells assessed as viable cells at 30 uM incubated for 24 hrs by Annexin V/PI double staining base flow cytometry analysis (reference value: 82.3 %); type: functional; conditions: read-out: Activity
HeLa [5] = assay: Induction of apoptosis in human HeLa cells assessed as early apoptotic cells at 30 uM incubated for 48 hrs by Annexin V/PI double staining base flow cytometry analysis (reference value: 2.59 %); type: functional
HeLa [6] = assay: Induction of apoptosis in human HeLa cells assessed as late apoptotic cells at 30 uM incubated for 48 hrs by Annexin V/PI double staining base flow cytometry analysis (reference value: 12.5 %); type: functional
HeLa [7] = assay: Induction of apoptosis in human HeLa cells assessed as necrotic cells at 30 uM incubated for 48 hrs by Annexin V/PI double staining base flow cytometry analysis (reference value: 2.65 %); type: functional
HeLa [8] = assay: Induction of apoptosis in human HeLa cells assessed as viable cells at 30 uM incubated for 48 hrs by Annexin V/PI double staining base flow cytometry analysis (reference value: 82.3 %); type: functional; conditions: read-out: Activity
HeLa [9] = assay: Antitumor activity against human HeLa cells xenografted in BALB/c nude mouse assessed as reduction in tumor volume at 5 mg/kg, iv administered every 3 days for 15 days; type: functional, organism-based; conditions: time 15.0 day
[10] = Toxicity in human HeLa cells xenografted in BALB/c nude mouse assessed as change in body weight at 5 mg/kg, iv administered every 3 days for 15 days; type: organism-based; conditions: in vivo, 360 h, time 15 day
[11] = GSH-mediated prodrug activation assessed as increase in fluorescence intensity at 10 uM measured up to 2 hrs by real time fluorescence spectra
[12] = GSH-mediated prodrug activation assessed as increase in fluorescence intensity at 10 uM measured at pH 5 by real time fluorescence spectra; conditions: pH 5, 10 µM
HepG2 [13] = assay: Antiproliferative activity against human HepG2 cells assessed as cell growth inhibition at 0.1 to 100 micromol/L measured after 24 hrs by MTT assay relative to control; type: functional, cell-based; conditions: dose 0.1-100 µmol/L
HepG2 [14] = assay: Antiproliferative activity against human HepG2 cells assessed as cell growth inhibition at 0.1 to 100 micromol/L measured after 48 hrs by MTT assay relative to control; type: functional, cell-based; conditions: dose 0.1-100 µmol/L
MCF7 [15] = assay: Antiproliferative activity against human MCF7 cells assessed as cell growth inhibition at 0.1 to 100 micromol/L measured after 24 hrs by MTT assay relative to control; type: functional, cell-based; conditions: dose 0.1-100 µmol/L
MCF7 [16] = assay: Antiproliferative activity against human MCF7 cells assessed as cell growth inhibition at 0.1 to 100 micromol/L measured after 48 hrs by MTT assay relative to control; type: functional, cell-based; conditions: dose 0.1-100 µmol/L
HEK-293T [17] = assay: Antiproliferative activity against human HEK293T cells assessed as cell growth inhibition at 0.1 to 100 micromol/L measured after 24 hrs by MTT assay relative to control; type: functional, cell-based; conditions: dose 0.1-100 µmol/L
HEK-293T [18] = assay: Antiproliferative activity against human HEK293T cells assessed as cell growth inhibition at 0.1 to 100 micromol/L measured after 48 hrs by MTT assay relative to control; type: cell-based; conditions: dose 0.1-100 µmol/L
HeLa [19] = assay: Antiproliferative activity against human HeLa cells assessed as cell growth inhibition at 0.1 to 100 micromol/L measured after 24 hrs by MTT assay relative to control; type: cell-based; conditions: dose 0.1-100 µmol/L
HeLa [20] = assay: Antiproliferative activity against human HeLa cells assessed as cell growth inhibition at 0.1 to 100 micromol/L measured after 48 hrs by MTT assay relative to control; type: functional, cell-based; conditions: dose 0.1-100 µmol/L
[21] = Prodrug activation in human HeLa cells assessed as increase in fluorescence at 10 uM within 6 hrs by confocal laser scanning microscopic method; type: cell-based
[22] = Prodrug activation in human HeLa cells assessed as increase in fluorescence at 10 uM within 6 hrs in the presence of N-ethylmalemide by confocal laser scanning microscopic method; type: cell-based
[23] = Drug uptake in tumor of BALB/c nude mouse xenografted with human HeLa cells 10 uM, iv measured after 24 hrs by fluorescence imaging based IVIS optical imaging analysis; type: ADME, organism-based, Neoplasm; conditions: in vivo
[24] = Drug uptake in tumor of BALB/c nude mouse xenografted with human HeLa cells 10 uM, iv measured after 6 to 36 hrs by fluorescence imaging based IVIS optical imaging analysis; type: ADME, organism-based, Neoplasm; conditions: in vivo, time 6-36 hrs
[25] = Toxicity in human HeLa cells xenografted in BALB/c nude mouse assessed as histological changes in liver at 5 mg/kg, iv administered every 3 days for 15 days by H and E staining based microscopic analysis; type: organism-based; conditions: in vivo, 360 h, time 15 day
[26] = Toxicity in BALB/c nude mouse xenografted with human HeLa cells assessed as histological changes in spleen at 5 mg/kg, iv administered every 3 days for 15 days by H and E staining based microscopic analysis; type: organism-based; conditions: in vivo, 360 h, time 15 day
[27] = Toxicity in BALB/c nude mouse xenografted with human HeLa cells assessed as histological changes in kidney at 5 mg/kg, iv administered every 3 days for 15 days by H and E staining based microscopic analysis; type: organism-based; conditions: in vivo, 360 h, time 15 day
[28] = Toxicity in human HeLa cells xenografted in BALB/c nude assessed as histological changes in heart at 5 mg/kg, iv administered every 3 days for 15 days by H and E staining based microscopic analysis; type: organism-based; conditions: in vivo, 360 h, time 15 day
[29] = Toxicity in human HeLa cells xenografted in BALB/c nude assessed as histological changes in tumor at 5 mg/kg, iv administered every 3 days for 15 days by H and E staining based microscopic analysis; type: organism-based; conditions: in vivo, 360 h, time 15 day
[30] = GSH-mediated prodrug activation assessed as increase in fluorescence intensity at 10 uM by UV-vis absorption spectroscopy
[31] = GSH-mediated prodrug activation assessed as increase in fluorescence intensity at 10 uM measured at 525 nm emission in presence of 0 to 500 uM of GSH by UV-vis absorption spectroscopy

For CC(=O)O[C@H]1C(=O)[C@@]2(C)[C@H]([C@H](OC(=O)c3ccccc3)[C@]3(O)C[C@H](OC(=O)[C@H](O)[C@@H](NC(=O)c4ccccc4)c4ccccc4)C(C)=C1C3(C)C)[C@]1(OC(C)=O)CO[C@@H]1C[C@@H]2O [PACLITAXEL], the Activity (HeLa [1]) was 10.6%, the Activity (HeLa [2]) was 34.7% and the Activity (HeLa [3]) was 2.24%. For the same molecule, the viability at 30 µM (HeLa [4]) was 52.4%, the Activity (HeLa [5]) was 4.55% and the Activity (HeLa [6]) was 66.6%. The Activity (HeLa [7]) was 2.12%, the viability at 30 µM (HeLa [8]) was 26.7% and the Activity (HeLa [9]) was “Active”. For the same molecule, the Activity [10] was “Non-Toxic”.
With COc1ccc(OC(=O)CCCSSCCCC(=O)O[C@@H](C(=O)O[C@H]2C[C@@]3(O)[C@@H](OC(=O)c4ccccc4)[C@@H]4[C@]5(OC(C)=O)CO[C@@H]5C[C@H](O)[C@@]4(C)C(=O)[C@H](OC(C)=O)C(=C2C)C3(C)C)[C@@H](NC(=O)c2ccccc2)c2ccccc2)c(-c2nc3ccccc3s2)c1 the Drug metabolism [11] was “Metabolite_Detected”, the Drug metabolism [12] was “Metabolite_Detected” and the Activity (HepG2 [13]) was “Active”. The Activity (HepG2 [14]) was “Active”, the Activity (MCF7 [15]) was “Active” and the Activity (MCF7 [16]) was “Active”. For the same molecule, the Activity (HEK-293T [17]) was “Active”, the Activity (HEK-293T [18]) was “Toxic” and the Activity (HeLa [19]) was “Toxic”. For the same molecule, the Activity (HeLa [20]) was “Active”, the Activity (HeLa [1]) was 6.79% and the Activity (HeLa [2]) was 28.7%. The Activity (HeLa [3]) was 3.59%, the viability at 30 µM (HeLa [4]) was 60.9% and the Activity (HeLa [5]) was 14.4%. It also gave an Activity (HeLa [6]) of 72.4%, an Activity (HeLa [7]) of 4.86% and a viability at 30 µM (HeLa [8]) of 8.39%. For the same molecule, the Drug metabolism [21] was “Metabolite_Detected”, the Drug metabolism [22] was “Metabolite_Detected” and the Drug uptake [23] was “Active”. The Drug uptake [24] was “Active”, the Activity (HeLa [9]) was “Active” and the Activity [10] was “Non-Toxic”. For the same molecule, the Activity [25] was “Non-Toxic”, the Activity [26] was “Non-Toxic” and the Activity [27] was “Non-Toxic”. For the same molecule, the Activity [28] was “Non-Toxic”, the Activity [29] was “Non-Toxic” and the Drug metabolism [30] was “Metabolite_Detected”. The Drug metabolism [31] was “Metabolite_Detected”.
